Data from US8153385B2, “Target protein and target gene in drug designing and screening method” (Reverse Proteomics Research Institute Co., Ltd., priority 2004, dated 2012).

Target: T1, FLJ13397 clone-derived protein (CARP) (Homo sapiens, UniProt Q9H8M7)
T1 construct: A human full-length cDNA clone was expressed as a protein with an N-terminal His tag; His tag (pDEST17 Gateway vector) (N); made in house; host or cells: Escherichia coli BL21star(DE3)pLysS
T1 sequence (Q9H8M7 1-445): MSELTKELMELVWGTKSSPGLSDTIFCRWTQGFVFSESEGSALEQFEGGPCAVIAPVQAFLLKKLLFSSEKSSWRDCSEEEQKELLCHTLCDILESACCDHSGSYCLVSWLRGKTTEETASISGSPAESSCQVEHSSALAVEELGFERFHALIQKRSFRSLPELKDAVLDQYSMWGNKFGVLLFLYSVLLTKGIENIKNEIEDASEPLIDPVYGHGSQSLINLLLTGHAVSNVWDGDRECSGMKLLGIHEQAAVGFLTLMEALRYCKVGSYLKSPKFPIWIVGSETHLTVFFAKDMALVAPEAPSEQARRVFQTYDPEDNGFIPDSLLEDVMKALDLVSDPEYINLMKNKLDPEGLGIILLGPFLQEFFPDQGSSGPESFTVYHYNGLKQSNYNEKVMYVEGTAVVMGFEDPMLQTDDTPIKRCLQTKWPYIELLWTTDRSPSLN
Test: SEC/MS (size exclusion chromatography / mass analysis) interaction analysis between FLJ13397 clone-derived protein and compounds
Type: binding
Description: BP-reaction was performed on human full-length cDNA clone and the cloning vector Gateway pDONR201 by the PCR cloning method using the Invitrogen Gateway system to yield an entry clone. LR-reaction was performed on this entry clone with the destination vector pDEST17 (Gateway System) and LR Clonase at 25° C. for 60 minutes to yield an expression plasmid. Escherichia coli competent cell BL21star(DE3)pLysS were transformed with this expression plasmid, a clone incorporating the expression vector was selected, and a frozen stock was prepared. The transformant was inoculated into LB medium and precultured, after which it was transferred into SB medium and cultured to induce the expression by IPTG, and the cells were stored frozen.
A human full-length cDNA clone was expressed as a protein with an N-terminal His tag. This clone was purified using BioRobot 8000 (Qiagen) or ACTA Crystal (Amersham). […] In the purification with ACTA Crystal, affinity purification using a HisTrap HP column was followed by gel filtration purification using the Gel Filtration Column HiLoad 16/60 or a 10/30 Superdex 75 prep grade column. The purified fraction was used for interaction analysis after being subjected to SDS-PAGE to verify the estimated molecular weight and purity.
To analyze the interactions between commonly used drugs and proteins expressed from human full-length cDNA clones while keeping both the proteins and the compounds in non-modified, non-immobilized state, size exclusion chromatography (SEC) and mass analysis were used in combination (FIGS. 1 and 2). The specific procedures are shown below.
The compound-protein mixture prepared in step 1 was subjected to chromatography using an SEC column, the compound and the protein were separated by SEC, and the bound compound or compound that interacted with the protein in the protein fraction was analyzed using a mass analyzer.
Protein concentrations were measured using BCA Protein Assay (PIERCE), in consideration of the purity calculated by SDS-PAGE.
Mass analysis was performed using LCQ DECA XP (Thermoelectron) or Q-TOFmicro (Micromass), equipped with an ESI probe. The LC pump used was Agilent 1100 (Yokogawa Analytical Systems), and the autosampler used was HTC-PAL (CTC Analytics) equipped with a cooling stacker.
In the SEC method using a 384-well spin column, Unifilter 100 (Whatman), packed with 10 μL (dry volume) of Bio-Gel P6 (BIO-RAD) and swollen with milliQ water, was used as the SEC column. […] The SEC spin column was mounted on an acetonitrile-aliquoted 384-well U-bottom plate and centrifuged; the SEC spin column filtrate, which is a protein fraction, was retrieved in 50% acetonitrile. The protein precipitate produced by the acetonitrile was removed via centrifugation and filtration for protein removal; the resulting filtrate was concentrated by centrifugation and re-dissolved in 10 μL of 50% methanol to obtain a mass analysis sample. The mobile phase supplied to the mass analyzer was 0.1% formic acid/50% methanol solution in the positive ion mode, and 0.1% ammonia/50% methanol solution in the negative ion mode; these mobile phases were used at a flow rate of 40 μL/min. 2-μL of mass analysis samples were injected using an autosampler at 2-Minute intervals; the mass spectral intensity of the compound was measured to obtain the spectral intensity of the pharmaceutical compound contained in the SEC spin column filtrate (protein fraction eluted from SEC).

[1] = compound 1 μM, protein 0 μM (protein-free reference)
[2] = compound 1 μM, protein 23.75 μM
[3] = compound 10 μM, protein 0 μM (protein-free reference)
[4] = compound 10 μM, protein 23.75 μM
[5] = compound 10 μM, protein 47.5 μM
[6] = compound 100 μM, protein 0 μM (protein-free reference)
[7] = compound 100 μM, protein 23.75 μM
[8] = compound 100 μM, protein 47.5 μM
[9] = compound 250 μM, protein 0 μM (protein-free reference)
[10] = compound 250 μM, protein 23.75 μM
[11] = compound 250 μM, protein 47.5 μM

Question: `Nc1nc2ccccc2n1Cc1ccccc1` [2-Amino-1-Benzylbenzimidazole, 2-Amino-1-benzylbenzimidazole] was tested. Which “spectrum intensity of the extracted mass range (compound in SEC spin column filtrate)” value (“spectrum intensity” for short) [1] did it give?
Answer: 5598524

Question: And the “spectrum intensity” value [2]?
Answer: 1659600

Question: And the “spectrum intensity” value (compound 1 μM, protein 47.5 μM)?
Answer: 2958392

Question: And the “spectrum intensity” value [3]?
Answer: 4341825

Question: What about the “spectrum intensity” value [4] of the same compound?
Answer: 4509110

Question: And the “spectrum intensity” value [5]?
Answer: 7550402

Question: What about the “spectrum intensity” value [6] of the same compound?
Answer: 12703620

Question: And the “spectrum intensity” value [7]?
Answer: 32945929

Question: What about the “spectrum intensity” value [8] of the same compound?
Answer: 42993061

Question: What about the “spectrum intensity” value [9] of the same compound?
Answer: 39100216

Question: And the “spectrum intensity” value [10]?
Answer: 125775631

Question: What about the “spectrum intensity” value [11] of the same compound?
Answer: 559844

Question: What does the source list for `CCCS(=O)(=O)c1ccc2[nH]c(N)nc2c1` [2-Amino-5-N-Propylsulphonylbenzimidazole, 2-Amino-5-N-propylsulphonylbenzimidazole]?
Answer: spectrum intensity of the extracted mass range (compound in SEC spin column filtrate) [1]: 825049; spectrum intensity of the extracted mass range (compound in SEC spin column filtrate) [2]: 360734; spectrum intensity of the extracted mass range (compound in SEC spin column filtrate) (compound 1 μM, protein 47.5 μM): 484482; spectrum intensity of the extracted mass range (compound in SEC spin column filtrate) [3]: 1750199; spectrum intensity of the extracted mass range (compound in SEC spin column filtrate) [4]: 1437041; spectrum intensity of the extracted mass range (compound in SEC spin column filtrate) [5]: 1664928; spectrum intensity of the extracted mass range (compound in SEC spin column filtrate) [6]: 36160236; spectrum intensity of the extracted mass range (compound in SEC spin column filtrate) [7]: 53411123; spectrum intensity of the extracted mass range (compound in SEC spin column filtrate) [8]: 52719227; spectrum intensity of the extracted mass range (compound in SEC spin column filtrate) [9]: 91113992; spectrum intensity of the extracted mass range (compound in SEC spin column filtrate) [10]: 98334673; spectrum intensity of the extracted mass range (compound in SEC spin column filtrate) [11]: 159174682

Question: What does the source list for `Nc1nc2ccccc2[nH]1` [2-Aminobenzimidazole]?
Answer: spectrum intensity of the extracted mass range (compound in SEC spin column filtrate) [1]: 276565; spectrum intensity of the extracted mass range (compound in SEC spin column filtrate) [2]: 42562; spectrum intensity of the extracted mass range (compound in SEC spin column filtrate) (compound 1 μM, protein 47.5 μM): 152781; spectrum intensity of the extracted mass range (compound in SEC spin column filtrate) [3]: 153479; spectrum intensity of the extracted mass range (compound in SEC spin column filtrate) [4]: 69826; spectrum intensity of the extracted mass range (compound in SEC spin column filtrate) [5]: 71963; spectrum intensity of the extracted mass range (compound in SEC spin column filtrate) [6]: 437739; spectrum intensity of the extracted mass range (compound in SEC spin column filtrate) [7]: 1819414; spectrum intensity of the extracted mass range (compound in SEC spin column filtrate) [8]: 2080493; spectrum intensity of the extracted mass range (compound in SEC spin column filtrate) [9]: 2837732; spectrum intensity of the extracted mass range (compound in SEC spin column filtrate) [10]: 7370524; spectrum intensity of the extracted mass range (compound in SEC spin column filtrate) [11]: 8155388

Question: `CCCS(=O)(=O)c1ccc2nc(NC(=O)OC)[nH]c2c1` [Albendazole Sulfone] was tested. Which “spectrum intensity” value [1] did it give?
Answer: 1342766

Question: And the “spectrum intensity” value [2]?
Answer: 1155288

Question: And the “spectrum intensity” value (compound 1 μM, protein 47.5 μM)?
Answer: 761260

Question: What about the “spectrum intensity” value [3] of the same compound?
Answer: 5960539

Question: And the “spectrum intensity” value [4]?
Answer: 5481616

Question: What about the “spectrum intensity” value [5] of the same compound?
Answer: 5089101

Question: And the “spectrum intensity” value [6]?
Answer: 94575228

Question: And the “spectrum intensity” value [7]?
Answer: 149841728

Question: And the “spectrum intensity” value [8]?
Answer: 131428354

Question: What about the “spectrum intensity” value [9] of the same compound?
Answer: 66281031

Question: What about the “spectrum intensity” value [10] of the same compound?
Answer: 280956724

Question: And the “spectrum intensity” value [11]?
Answer: 328407687

Question: Which results are given for `CCC[S+]([O-])c1ccc2[nH]c(NC(=O)OC)nc2c1` (stereo not drawn) [Albendazole Sulfoxide]?
Answer: spectrum intensity of the extracted mass range (compound in SEC spin column filtrate) [1]: 1514429; spectrum intensity of the extracted mass range (compound in SEC spin column filtrate) [2]: 1280086; spectrum intensity of the extracted mass range (compound in SEC spin column filtrate) (compound 1 μM, protein 47.5 μM): 1361540; spectrum intensity of the extracted mass range (compound in SEC spin column filtrate) [3]: 11869270; spectrum intensity of the extracted mass range (compound in SEC spin column filtrate) [4]: 13449119; spectrum intensity of the extracted mass range (compound in SEC spin column filtrate) [5]: 14241157; spectrum intensity of the extracted mass range (compound in SEC spin column filtrate) [6]: 125971079; spectrum intensity of the extracted mass range (compound in SEC spin column filtrate) [7]: 208777846; spectrum intensity of the extracted mass range (compound in SEC spin column filtrate) [8]: 241218904; spectrum intensity of the extracted mass range (compound in SEC spin column filtrate) [9]: 460535649; spectrum intensity of the extracted mass range (compound in SEC spin column filtrate) [10]: 532900104; spectrum intensity of the extracted mass range (compound in SEC spin column filtrate) [11]: 372564422

Question: How did the “spectrum intensity” value [1] turn out when `CCCSc1ccc2nc(NC(=O)OC)[nH]c2c1` [Albendazole] was run?
Answer: 99130

Question: And the “spectrum intensity” value [2]?
Answer: 290428

Question: And the “spectrum intensity” value (compound 1 μM, protein 47.5 μM)?
Answer: 247973

Question: And the “spectrum intensity” value [3]?
Answer: 25263

Question: What about the “spectrum intensity” value [4] of the same compound?
Answer: 1117765

Question: What about the “spectrum intensity” value [5] of the same compound?
Answer: 603904

Question: What about the “spectrum intensity” value [6] of the same compound?
Answer: 221630

Question: What about the “spectrum intensity” value [7] of the same compound?
Answer: 6713076

Question: What about the “spectrum intensity” value [8] of the same compound?
Answer: 3946588

Question: What about the “spectrum intensity” value [9] of the same compound?
Answer: 151791

Question: And the “spectrum intensity” value [10]?
Answer: 18185332

Question: What about the “spectrum intensity” value [11] of the same compound?
Answer: 55508710
